Results as given in ChEMBL document CHEMBL5096181, “Isoxazole derivatives as anticancer agent: A review on synthetic strategies, mechanism of action and SAR studies” (Eur J Med Chem, 2021).
In brackets after ≈: the same amount, converted by molar mass.

Legend:
MCF7 [1] = test: Cytotoxicity against human MCF7 cells assessed as cell growth inhibition and measured after 72 hrs by SRB assay; format: functional, cell-based; details: MCF7, 72 h
Huh-7 = test: Cytotoxicity against human Huh-7 cells assessed as cell growth inhibition and measured after 72 hrs by SRB assay; format: functional, cell-based; details: Huh-7, 72 h
Mahlavu = test: Cytotoxicity against human Mahlavu cells assessed as cell growth inhibition and measured after 72 hrs by SRB assay; format: functional, cell-based
DU-145 = test: Cytotoxicity against human DU-145 cells assessed as inhibition of cell growth by MTT assay; format: functional, cell-based
MCF7 [2] = test: Anticancer activity against human MCF7 cells assessed as inhibition of cell proliferation measured after 4 hrs by MTT assay; format: functional, cell-based; details: MCF7, 4 h
LNCaP = test: Antiproliferative activity against human LNCaP cells assessed as cell growth inhibition by MTT assay; format: functional, cell-based
Tubulin [3] = test: Inhibition of tubulin polymerization (unknown origin) by spectrophotometer based analysis; format: protein-complex assay, Homo sapiens
CWR22R = test: Antiproliferative activity against human 22Rv1 cells assessed as cell growth inhibition by MTT assay; format: functional, cell-based
PC-3 = test: Antiproliferative activity against human PC-3 cells assessed as cell growth inhibition by MTT assay; format: functional, cell-based
LNCaP C4-2B = test: Antiproliferative activity against human LNCaP C4-2B cells assessed as cell growth inhibition by MTT assay; format: functional, cell-based
MCF7 [4] = test: Cytotoxicity against human MCF7 cells assessed as cell growth inhibition by MTT assay; format: functional, cell-based
[5] = target: T1, Tyrosine-protein phosphatase non-receptor type 2 (Homo sapiens, UniProt P17706); test: Inhibition of TCPTP (unknown origin) by SpectraMax 340 microplate reader Analysis
T1 sequence (P17706 whole entry): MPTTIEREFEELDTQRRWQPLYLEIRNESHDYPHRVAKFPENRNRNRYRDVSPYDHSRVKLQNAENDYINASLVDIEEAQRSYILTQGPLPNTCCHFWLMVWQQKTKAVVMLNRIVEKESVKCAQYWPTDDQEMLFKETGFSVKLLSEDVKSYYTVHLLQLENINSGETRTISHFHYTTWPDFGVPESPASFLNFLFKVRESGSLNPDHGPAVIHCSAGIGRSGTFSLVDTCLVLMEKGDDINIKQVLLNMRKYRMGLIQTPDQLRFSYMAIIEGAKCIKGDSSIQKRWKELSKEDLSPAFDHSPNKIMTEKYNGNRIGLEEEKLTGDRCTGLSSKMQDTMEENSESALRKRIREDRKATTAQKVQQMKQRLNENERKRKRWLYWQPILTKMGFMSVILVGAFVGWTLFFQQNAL

[6] = target: T2, Tyrosine-protein phosphatase non-receptor type 1 (Homo sapiens, UniProt P18031); test: Inhibition of PTP1B (unknown origin) by SpectraMax 340 microplate reader Analysis
T2 sequence (P18031 whole entry): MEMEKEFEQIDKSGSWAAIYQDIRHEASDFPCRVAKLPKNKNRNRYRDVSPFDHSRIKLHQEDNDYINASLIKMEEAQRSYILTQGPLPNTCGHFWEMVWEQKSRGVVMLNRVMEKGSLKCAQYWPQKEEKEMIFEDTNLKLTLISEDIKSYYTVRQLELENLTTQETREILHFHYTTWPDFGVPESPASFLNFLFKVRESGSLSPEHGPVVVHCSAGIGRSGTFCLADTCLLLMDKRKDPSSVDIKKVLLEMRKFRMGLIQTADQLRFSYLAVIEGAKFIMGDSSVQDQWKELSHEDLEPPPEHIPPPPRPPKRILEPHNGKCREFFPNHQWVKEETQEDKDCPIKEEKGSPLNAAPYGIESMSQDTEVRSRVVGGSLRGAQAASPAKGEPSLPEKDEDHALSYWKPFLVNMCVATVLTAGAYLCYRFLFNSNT

Estrogen receptor = target: T3, Estrogen receptor (Homo sapiens, UniProt P03372); test: Inhibition of ERalpha (unknown origin) in MCF7 cells measured after 24 to 48 hrs by FRET assay; format: cell-based
T3 sequence (P03372 whole entry): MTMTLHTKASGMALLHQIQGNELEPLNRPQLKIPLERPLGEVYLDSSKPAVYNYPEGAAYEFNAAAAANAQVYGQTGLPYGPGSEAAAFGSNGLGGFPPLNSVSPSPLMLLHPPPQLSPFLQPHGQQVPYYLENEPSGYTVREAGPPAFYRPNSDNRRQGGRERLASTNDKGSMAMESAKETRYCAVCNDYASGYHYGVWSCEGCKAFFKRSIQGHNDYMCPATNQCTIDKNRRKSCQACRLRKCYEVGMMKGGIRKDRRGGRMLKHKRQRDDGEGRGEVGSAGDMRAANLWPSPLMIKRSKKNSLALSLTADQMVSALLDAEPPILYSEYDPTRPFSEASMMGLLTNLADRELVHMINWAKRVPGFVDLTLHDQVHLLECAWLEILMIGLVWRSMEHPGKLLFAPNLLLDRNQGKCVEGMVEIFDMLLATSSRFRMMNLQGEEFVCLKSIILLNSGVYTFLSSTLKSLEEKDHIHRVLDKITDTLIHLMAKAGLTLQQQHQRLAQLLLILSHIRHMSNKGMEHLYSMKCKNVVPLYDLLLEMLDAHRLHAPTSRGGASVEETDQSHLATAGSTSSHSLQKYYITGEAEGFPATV

MCF7R = test: Cytotoxicity against human MCF7R cells assessed as cell growth inhibition and by MTT assay; format: functional, cell-based
Tubulin [7] = target: Tubulin (Sus scrofa, UniProt P02554+P02550); test: Inhibition of pig brain tubulin polymerization by spectrometric method
MCF7 [8] = test: Induction of apoptosis in human MCF7 cells assessed as late apoptosis cells at 2.0 uM measured after 24 hrs by annexin-V-FITC and PI staining based flow cytometry analysis (reference value: 0.529%); format: functional
MCF7 [9] = test: Induction of apoptosis in human MCF7 cells assessed as early apoptosis cells at 2.0 uM measured after 24 hrs by annexin-V-FITC and PI staining based flow cytometry analysis (reference value: 0.486%); format: functional
Aromatase = target: T4, Aromatase (Homo sapiens, UniProt P11511); test: Inhibition of human recombinant aromatase expressed in baculovirus insect cell using 7-methoxy-trifluoromethyl coumarin (MFC) as substrate preincubated for 10 mins followed by substrate addition and measured for 30 mins by fluorescence based assay
T4 sequence (P11511 whole entry): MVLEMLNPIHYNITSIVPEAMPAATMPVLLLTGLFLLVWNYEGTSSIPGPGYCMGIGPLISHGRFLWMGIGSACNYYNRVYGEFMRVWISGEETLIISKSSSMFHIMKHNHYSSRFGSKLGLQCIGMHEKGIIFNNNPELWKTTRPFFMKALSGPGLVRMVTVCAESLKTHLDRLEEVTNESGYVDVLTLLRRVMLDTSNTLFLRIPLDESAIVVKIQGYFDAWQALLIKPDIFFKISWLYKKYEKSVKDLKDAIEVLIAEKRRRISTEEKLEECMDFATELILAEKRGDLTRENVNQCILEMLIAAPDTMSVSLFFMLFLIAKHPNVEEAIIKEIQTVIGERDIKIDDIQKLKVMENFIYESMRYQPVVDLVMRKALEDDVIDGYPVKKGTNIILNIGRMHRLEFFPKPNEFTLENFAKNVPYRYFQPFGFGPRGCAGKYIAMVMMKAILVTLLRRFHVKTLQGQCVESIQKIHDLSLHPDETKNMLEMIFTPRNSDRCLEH

Compound: Cc1ccc(-c2cc(N3CCN(Cc4ccc(C(F)(F)F)cc4)CC3)no2)cc1
- IC50 (MCF7 [1]): 9.4 µM
- IC50 (Huh-7): 24 µM
- IC50 (Mahlavu): > 40 µM

Compound: COc1ccc(C2CC(c3ccno3)=NN2C(N)=O)cc1OC (stereo not given)
- IC50 (DU-145): 4 µg/mL (≈ 12.6 µM)

Compound: COc1ccc(-c2oncc2-c2ccccc2Cl)c2ccccc12
- IC50 (MCF7 [2]): 10 µM

Compound: COc1cc(N(Cc2c(C)noc2C)C(=O)CSc2nc3ccccc3s2)cc(OC)c1OC
- IC50 (LNCaP): 4.31 µM
- IC50 (Tubulin [3]): 2.87 µM
- IC50 (CWR22R): 2.13 µM
- IC50 (PC-3): 2.81 µM
- IC50 (LNCaP C4-2B): 2.04 µM

Compound: Nc1nn(Cc2cc(-c3cccc(C(F)(F)F)c3)no2)c2nc(-c3cccs3)cc(C(F)(F)F)c12
- IC50 (MCF7 [4]): 13.4 µM

Compound: COc1cccc(-c2cc(Cn3nc(N)c4c(C(F)(F)F)cc(-c5cccs5)nc43)on2)c1
- IC50 (MCF7 [4]): 19.4 µM

Compound: Fc1ccc(-c2cc(N3CCN(Cc4ccc(C(F)(F)F)cc4)CC3)no2)cc1
- IC50 (MCF7 [1]): 11.9 µM
- IC50 (Huh-7): 5.3 µM
- IC50 (Mahlavu): 6.2 µM

Compound: Cc1cc(COc2ccc(-c3cc(N4CCN(Cc5ccc(C(F)(F)F)cc5)CC4)no3)cc2)n(C)n1
- IC50 (MCF7 [1]): 1.2 µM
- IC50 (Huh-7): 0.3 µM
- IC50 (Mahlavu): 3.7 µM

Compound: CS(=O)(=O)c1ccc(-c2cc(N3CCN(Cc4ccc(C(F)(F)F)cc4)CC3)no2)cc1
- IC50 (MCF7 [1]): 2.9 µM
- IC50 (Huh-7): 4.2 µM
- IC50 (Mahlavu): 26 µM

Compound: O=C(O)c1cccc(/C=C/c2ccc(Oc3cnoc3-c3cccc(Cl)c3)cc2)c1
- IC50 [5]: 7.58 µM
- IC50 [6]: 5.37 µM

Compound: COc1onc(-c2ccc(O)cc2)c1-c1oc2ccccc2c(=O)c1O
- IC50 (Estrogen receptor): 91.1 µM

Compound: O=C(O)c1cccc(/C=C/c2ccc(Oc3cnoc3-c3cccc([N+](=O)[O-])c3)cc2)c1
- IC50 [5]: 13.2 µM
- IC50 [6]: 2.05 µM

Compound: O=S(=O)(Nc1ccc(-c2cn[nH]c2)cc1)c1ccc(Cl)cc1
- IC50 (MCF7 [1]): 50 µM

Compound: CCCOc1ccc(-c2cc(N3CCN(Cc4ccc(C(F)(F)F)cc4)CC3)no2)cc1
- IC50 (MCF7 [1]): 4.9 µM
- IC50 (Huh-7): 8.8 µM
- IC50 (Mahlavu): 7.7 µM

Compound: COc1ccc(/C=C/c2cc(/C=C/c3ccc(O)c(OC)c3)no2)cc1O
- IC50 (MCF7R): 12 µM
- IC50 (MCF7 [4]): 13.1 µM

Compound: CCOc1ccc(-c2cnoc2-c2ccc(OC)c3ccccc23)cc1
- IC50 (Tubulin [7]): 3.4 µM
- IC50 (MCF7 [2]): 1.23 µM
- inhibition at 2 µM (MCF7 [8]): 6.44%
- inhibition at 2 µM (MCF7 [9]): 15.3%

Compound: O=C(O)c1cccc(/C=C/c2ccc(Oc3cnoc3-c3ccccc3Cl)cc2)c1
- IC50 [5]: 36.2 µM
- IC50 [6]: 1.75 µM

Compound: COc1ccc(C2CC(c3ccno3)=NN2C(N)=O)c(F)c1OC (stereo not given)
- IC50 (DU-145): 2 µg/mL (≈ 5.98 µM)

Compound: Cc1c(-c2nocc2C(=O)SC#N)c(=O)n(-c2ccccc2)n1C
- IC50 (Aromatase): 0.0023 µM
